Assay results: patent US12458021B2, “Microbiocidal derivatives” (SYNGENTA CROP PROTECTION AG, priority 2019, dated 2025)

Key:
[1] = system: Mycosphaerella graminicola (Septoria tritici); experiment: Mycosphaerella graminicola (Septoria tritici) / liquid culture (Septoria blotch); format: cell-based; conditions: Zymoseptoria tritici, PDB potato dextrose broth, 24° C., 4-5 days after application, read-out: control of Mycosphaerella graminicola (inhibition of growth, photometric)
Outline: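 Fungal growth inhibition was read photometrically 4-5 days after application. Compound was dosed from a DMSO solution into liquid cultures of spores in potato dextrose broth, incubated at 24° C.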

[2] = system: Glomerella lagenarium (Colletotrichum lagenarium); experiment: Glomerella lagenarium (Colletotrichum lagenarium) / liquid culture (anthracnose); format: cell-based; conditions: Colletotrichum orbiculare, PDB potato dextrose broth, 24° C., 3-4 days after application, read-out: control of Glomerella lagenarium (inhibition of growth, photometric)
Outline: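 Fungal growth inhibition measured photometrically 3-4 days post-application at 24° C. Spores were mixed directly into potato dextrose broth and dispensed onto test compound supplied in DMSO.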

[3] = system: Monographella nivalis (Microdochium nivale); experiment: Monographella nivalis (Microdochium nivale) / liquid culture (foot rot cereals); format: cell-based; conditions: PDB potato dextrose broth, 24° C., 4-5 days after application, read-out: control of Monographella nivalis (inhibition of growth, photometric)
Outline: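 Growth inhibition measured by photometry 4-5 days post-application at 24° C. Compound was dispensed as DMSO solution, then PDB broth containing conidia from cryogenic storage was added.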

[4] = system: Puccinia recondita f. sp. tritici; experiment: Puccinia recondita f. sp. tritici / wheat / leaf disc preventative (brown rust); format: in vivo; conditions: foliar, wheat leaf segments cv. Kanzler, inoculated 1 day after application, assessed 7-9 days after application, read-out: control of Puccinia recondita f. sp. tritici, preventative (percent disease control compared to untreated)
Protocol: Example B11: Puccinia recondita f. sp. tritici/Wheat/Leaf Disc Preventative (Brown Rust) Wheat leaf segments cv. Kanzler are placed on agar in multiwell plates (24-well format) and sprayed with the formulated test compound diluted in water. The leaf disks are inoculated with a spore suspension of the fungus 1 day after application. The inoculated leaf segments are incubated at 19° C. and 75% rh under a light regime of 12 h light/12 h darkness in a climate cabinet and the activity of a compound is assessed as percent disease control compared to untreated when an appropriate level of disease damage appears in untreated check leaf segments (7-9 days after application). […] […]-190.

[5] = system: Pyrenophora teres; experiment: Pyrenophora teres / barley / leaf disc preventative (net blotch); format: in vivo; conditions: foliar, barley leaf segments cv. Hasso, inoculated 2 days after application, assessed 5-7 days after application, read-out: control of Pyrenophora teres (disease control compared to untreated)
Protocol: Example B13: Pyrenophora teres/Barley/Leaf Disc Preventative (Net Blotch) Barley leaf segments cv. Hasso are placed on agar in a multiwell plate (24-well format) and sprayed with the formulated test compound diluted in water. The leaf segments are inoculated with a spore suspension of the fungus 2 days after application. The inoculated leaf segments are incubated at 20° C. and 65% rh under a light regime of 12 h light/12 h darkness in a climate cabinet and the activity of a compound is assessed as disease control compared to untreated when an appropriate level of disease damage appears in untreated check leaf segments (5-7 days after application). […] […]-185.

[6] = system: Magnaporthe grisea (Pyricularia oryzae); experiment: whole plant or invertebrate; format: in vivo; conditions: foliar, read-out: control of Magnaporthe grisea (percent disease control compared to untreated)
[7] = system: Alternaria solani; experiment: Alternaria solani / tomato / leaf disc (early blight); format: in vivo; conditions: foliar, tomato leaf disks cv. Baby, inoculated 2 days after application, assessed 5-7 days after application, read-out: control of Alternaria solani (percent disease control compared to untreated)
Protocol: Example B1: Alternaria solani/Tomato/Leaf Disc (Early Blight) Tomato leaf disks cv. Baby are placed on agar in multiwell plates (24-well format) and sprayed with the formulated test compound diluted in water. The leaf disks are inoculated with a spore suspension of the fungus 2 days after application. The inoculated leaf disks are incubated at 23° C./21° C. […] […]-185.

[8] = system: Blumeria graminis f. sp. tritici (Erysiphe graminis f. sp. tritici); experiment: Blumeria graminis f. sp. tritici / wheat / leaf disc preventative (powdery mildew on wheat); format: in vivo; conditions: foliar, wheat leaf segments cv. Kanzler, inoculated 1 day after application, assessed 6-8 days after application, read-out: control of Blumeria graminis f. sp. tritici (percent disease control compared to untreated)
Text: Example B4: Blumeria graminis f. sp. tritici (Erysiphe graminis f. sp. tritici)/Wheat/Leaf Disc Preventative (Powdery Mildew on Wheat) Wheat leaf segments cv. Kanzler are placed on agar in a multiwell plate (24-well format) and sprayed with the formulated test compound diluted in water. The leaf disks are inoculated by shaking powdery mildew infected plants above the test plates 1 day after application. […] […]-192.

[9] = system: Mycosphaerella arachidis (Cercospora arachidicola); experiment: Mycosphaerella arachidis (Cercospora arachidicola) / liquid culture (early leaf spot); format: cell-based; conditions: PDB potato dextrose broth, 24° C., 4-5 days after application, read-out: control of Mycosphaerella arachidis (inhibition of growth, photometric)
Protocol: Example B8: Mycosphaerella arachidis (Cercospora arachidicola)/Liquid Culture (Early Leaf Spot) Conidia of the fungus from cryogenic storage are directly mixed into nutrient broth (PDB potato dextrose broth). After placing a (DMSO) solution of test compound into a microtiter plate (96-well format), the nutrient broth containing the fungal spores is added. The test plates are incubated at 24° C. and the inhibition of growth is determined photometrically 4-5 days after application. […] […]-180.

COc1ccc(Nc2cc(F)nc(F)c2)nc1C(=O)NC1CCC12CCCC2 (centres unmarked) [Compound P-6, 6-[(2,6-difluoro-4-pyridyl)amino]-3-methoxy-N-spiro[3.4]octan-3-yl-pyridine-2-carboxamide]
≥ 80%: inhibition at 20 ppm [1] | inhibition at 20 ppm [2] | inhibition at 20 ppm [3] | pest or weed control at 200 ppm [4] | pest or weed control at 200 ppm [5] | pest or weed control at 200 ppm [6] | pest or weed control at 200 ppm [7] | pest or weed control at 200 ppm [8]

COc1ccc(Nc2cc(F)nc(F)c2)nc1C(=O)NCCC(C)C [Compound P-29, 6-[(2,6-difluoro-4-pyridyl)amino]-N-isopentyl-3-methoxy-pyridine-2-carboxamide]
≥ 80%: inhibition at 20 ppm [1] | inhibition at 20 ppm [2] | inhibition at 20 ppm [3] | pest or weed control at 200 ppm [4] | pest or weed control at 200 ppm [5] | pest or weed control at 200 ppm [6] | pest or weed control at 200 ppm [8]

COc1ccc(Nc2cnsc2)nc1C(=O)NC(C)CCCC(C)C (centres unmarked) [Compound P-36, N-(1,5-dimethylhexyl)-6-(isothiazol-4-ylamino)-3-methoxy-pyridine-2-carboxamide]
≥ 80%: inhibition at 20 ppm [1] | inhibition at 20 ppm [2] | inhibition at 20 ppm [3] | inhibition at 20 ppm [9]

COc1ccc(Nc2cc(F)cc(F)c2)nc1C(=O)NCC1COc2ccccc21 (centres unmarked) [Compound P-60, 6-(3,5-difluoroanilino)-N-(2,3-dihydrobenzofuran-3-ylmethyl)-3-methoxy-pyridine-2-carboxamide]
≥ 80%: inhibition at 20 ppm [1] | inhibition at 20 ppm [2] | inhibition at 20 ppm [3] | pest or weed control at 200 ppm [6] | pest or weed control at 200 ppm [7]

COc1ccc(Nc2cc(F)cc(F)c2)nc1C(=O)NC1COC(C2CC2)C1 (centres unmarked) [Compound P-65, N-(5-cyclopropyltetrahydrofuran-3-yl)-6-(3,5-difluoroanilino)-3-methoxy-pyridine-2-carboxamide]
≥ 80%: inhibition at 20 ppm [1] | inhibition at 20 ppm [2] | inhibition at 20 ppm [3] | pest or weed control at 200 ppm [6] | pest or weed control at 200 ppm [7] | pest or weed control at 200 ppm [8]

COc1ccc(Nc2cc(F)cc(F)c2)nc1C(=O)NCc1c(Cl)cncc1Cl [Compound P-66, N-[(3,5-dichloro-4-pyridyl)methyl]-6-(3,5-difluoroanilino)-3-methoxy-pyridine-2-carboxamide]
≥ 80%: inhibition at 20 ppm [1] | inhibition at 20 ppm [2] | inhibition at 20 ppm [3] | pest or weed control at 200 ppm [6] | pest or weed control at 200 ppm [7]

COc1ccc(Nc2cc(F)cc(F)c2)nc1C(=O)NCC1(C)CCOC1 (centres unmarked) [Compound P-68, 6-(3,5-difluoroanilino)-3-methoxy-N-[(3-methyltetrahydrofuran-3-yl)methyl]pyridine-2-carboxamide]
≥ 80%: inhibition at 20 ppm [1] | inhibition at 20 ppm [2] | inhibition at 20 ppm [3] | pest or weed control at 200 ppm [6] | pest or weed control at 200 ppm [7] | pest or weed control at 200 ppm [8]

COc1ccc(Nc2cc(F)cc(F)c2)nc1C(=O)NC1COC2(CC2)C1 (centres unmarked) [Compound P-70, 6-(3,5-difluoroanilino)-3-methoxy-N-(4-oxaspiro[2.4]heptan-6-yl)pyridine-2-carboxamide]
≥ 80%: inhibition at 20 ppm [1] | inhibition at 20 ppm [2] | inhibition at 20 ppm [3] | pest or weed control at 200 ppm [4] | pest or weed control at 200 ppm [6] | pest or weed control at 200 ppm [7] | pest or weed control at 200 ppm [8]

COc1ccc(Nc2cc(F)cc(F)c2)nc1C(=O)NC1C2CCOC2C1(C)C (centres unmarked) [Compound P-76, 6-(3,5-difluoroanilino)-N-(7,7-dimethyl-2-oxabicyclo[3.2.0]heptan-6-yl)-3-methoxy-pyridine-2-carboxamide]
≥ 80%: inhibition at 20 ppm [1] | inhibition at 20 ppm [2] | inhibition at 20 ppm [3] | pest or weed control at 200 ppm [4] | pest or weed control at 200 ppm [5] | pest or weed control at 200 ppm [6] | pest or weed control at 200 ppm [7] | pest or weed control at 200 ppm [8]

COc1ccc(Nc2cc(F)cc(F)c2)nc1C(=O)NC1CCS(=O)(=O)CC1 [Compound P-78, 6-(3,5-difluoroanilino)-N-(1,1-dioxothian-4-yl)-3-methoxy-pyridine-2-carboxamide]
≥ 80%: pest or weed control at 200 ppm [7]

COc1ccc(Nc2cnsc2)nc1C(=O)NCC1(C(F)(F)F)CC1 [Compound P-83, 6-(isothiazol-4-ylamino)-3-methoxy-N-[[1-(trifluoromethyl)cyclopropyl]methyl]pyridine-2-carboxamide]
≥ 80%: inhibition at 20 ppm [1] | inhibition at 20 ppm [2] | inhibition at 20 ppm [3] | pest or weed control at 200 ppm [7] | pest or weed control at 200 ppm [8]

C#CCOc1ccc(Nc2cc(F)cc(F)c2)nc1C(=O)NC1CCC1(C)C (centres unmarked) [Compound P-86, 6-(3,5-difluoroanilino)-N-(2,2-dimethylcyclobutyl)-3-prop-2-ynoxy-pyridine-2-carboxamide]
≥ 80%: inhibition at 20 ppm [2] | inhibition at 20 ppm [3] | pest or weed control at 200 ppm [7]

CC(C)Oc1ccc(Nc2cc(F)cc(F)c2)nc1C(=O)NC1CCC1(C)C (centres unmarked) [Compound P-87, 6-(3,5-difluoroanilino)-N-(2,2-dimethylcyclobutyl)-3-isopropoxy-pyridine-2-carboxamide]
≥ 80%: inhibition at 20 ppm [2] | inhibition at 20 ppm [3] | pest or weed control at 200 ppm [6] | pest or weed control at 200 ppm [7]

COc1ccc(Nc2cc(F)nc(F)c2)nc1C(=O)NC1(C)CCCCC1 [Compound P-110, 6-[(2,6-difluoro-4-pyridyl)amino]-3-methoxy-N-(1-methylcyclohexyl)pyridine-2-carboxamide]
≥ 80%: inhibition at 20 ppm [1] | inhibition at 20 ppm [2] | inhibition at 20 ppm [3] | pest or weed control at 200 ppm [4] | pest or weed control at 200 ppm [6] | pest or weed control at 200 ppm [7] | pest or weed control at 200 ppm [8]

COc1ccc(Nc2cc(F)nc(F)c2)nc1C(=O)NC1(C#N)CCCC1 [Compound P-125, N-(1-cyanocyclopentyl)-6-[(2,6-difluoro-4-pyridyl)amino]-3-methoxy-pyridine-2-carboxamide]
≥ 80%: pest or weed control at 200 ppm [4] | pest or weed control at 200 ppm [6] | pest or weed control at 200 ppm [7] | pest or weed control at 200 ppm [8]

COc1ccc(Nc2cc(Cl)cc(Cl)c2)nc1C(=O)NC(C)(C)C [Compound P-148, N-tert-butyl-6-(3,5-dichloroanilino)-3-methoxy-pyridine-2-carboxamide]
≥ 80%: inhibition at 20 ppm [1] | inhibition at 20 ppm [2] | inhibition at 20 ppm [3] | pest or weed control at 200 ppm [4] | pest or weed control at 200 ppm [6] | pest or weed control at 200 ppm [7]
